Experimental data published in US20060020036A1, “Methods and compositions to promote bone homestasis” (priority 2004, published 2006).
Entries after “also recorded” stand apart in the source; their conditions may differ.

Target: T1, NR1H3 (Homo sapiens, UniProt Q13133)
T1 construct: amplification of the complete open reading frame from ATG start codon to the stop codon of drugable genes; expressed in transfected cells; host or cells: primary human mesenchymal progenitor cells (MPCs), transduced with Ad5-NR1H3 and Ad-hCAR
T1 sequence (Q13133 1-447): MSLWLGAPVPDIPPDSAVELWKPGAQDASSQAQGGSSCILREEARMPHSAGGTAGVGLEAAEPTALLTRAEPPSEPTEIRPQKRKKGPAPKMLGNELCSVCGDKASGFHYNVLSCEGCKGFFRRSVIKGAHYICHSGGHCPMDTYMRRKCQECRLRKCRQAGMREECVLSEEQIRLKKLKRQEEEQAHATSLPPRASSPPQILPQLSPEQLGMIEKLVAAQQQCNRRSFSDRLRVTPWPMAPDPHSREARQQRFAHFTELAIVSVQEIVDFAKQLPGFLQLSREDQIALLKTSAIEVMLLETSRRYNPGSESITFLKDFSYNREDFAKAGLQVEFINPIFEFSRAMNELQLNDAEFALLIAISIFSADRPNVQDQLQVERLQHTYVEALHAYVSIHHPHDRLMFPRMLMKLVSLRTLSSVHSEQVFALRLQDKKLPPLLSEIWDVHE
Test: AP assay: MPCs infected with Ad-NR1H3 and treated with ligand
Type: cell-based
Settings: for up-regulation of endogenous alkaline phosphatase (AP) activity, dose-response: MPCs infected with Ad-NR1H3, ligand at different concentrations
Experimental: Mesenchymal progenitor cells (MPCs) differentiate into osteoblasts in the presence of appropriate factors (e.g. BMP2). An assay to screen for such factors is developed by monitoring the activity of alkaline phosphatase (AP) enzyme, an early marker in the osteoblast differentiation program. MPCs are seeded in 384 well plates and simultaneously co-infected one day later with adenoviruses encoding the human coxsackie and adenovirus receptor (hCAR; Ad-hCAR) and individual adenoviruses (Ad-cDNA) from the arrayed adenoviral knock-in collection containing cDNA sequences corresponding to genes from “drugable” classes like GPCR's, kinases, proteases, phosphodiesterases and nuclear hormone receptors (the FLeXSelect collection). The majority of these cDNAs are obtained by a PCR-based approach. Briefly, PCR primers are designed for amplification of the complete open reading frame from ATG start codon to the stop codon of drugable genes, based on sequence data present in the RefSeq database. Primers are mixed in an arrayed format at a PCR ready concentration in 96 well plates. As a template for the PCR reactions, placental, fetal liver, fetal brain and spinal cord cDNA libraries are used (from Invitrogen or Edge Biosystems). For the genes encoded by a single exon, PCR reactions are also performed on human genomic DNA. After the amplification reactions, the PCR products are purified with a 96-well PCR clean-up system (Wizard magnesil, Promega, Madison, Wis., USA), digested with the appropriate restriction enzymes (AscI, NotI or SalI restriction sites are included in the primers) and directly cloned into the adenoviral adapter plasmid pIspAdAdapt-10-Zeo (described in U.S. Pat. No. 6,340,595) using DNA ligation kit version 2 (TaKaRa, Berkeley, CA, USA). After a transformation and selection step, multiple clones per gene, one of which is sequence verified, are used for the preparation of plasmid DNA and subsequent generation of adenovirus according to the procedure described in WO99/64582.
Cellular AP activity is determined 6 days after the infection (or ligand addition—see below). The principle of the assays is depicted in FIG. 2. […] Six days after the start of infection or treatment with a ligand, endogenous alkaline phosphatase activity is measured following addition of 4-methylumbelliferyl […] (MUP) substrate.
The stocks of the Ad-control-viruses are generated in 96 well plates (control plate). […] Up-regulation of alkaline phosphatase is read at 6 days post infection (6 dpi): 15 μl 4-Methylumbelliferyl-phosphate (MUP, Sigma) is added to each well, the plates are incubated for 15 min at 37° C. and monitored for AP activity using a fluorescence plate reader (Fluostar, BMG). […]

Row | SMILES | up-regulation of endogenous alkaline phosphatase (AP) activity, dose-response | induction of AP activity in different MPC isolates (MPCs from 4 different donors, Ad-NR1H3 MOI 2500 + T0901317, 6 days)
1 | CC(=O)Oc1ccc2c(c1)[C@@]1(C)CCC[C@](C)(C(=O)OC(=O)[C@@]3(C)CCC[C@]4(C)c5cc(OC(C)=O)ccc5CC[C@@H]34)[C@@H]1CC2 [APD, acetyl podocarpic dimer] | dose-response relation is observed; also recorded: AP activity is up-regulated; also recorded: Dose-dependent up-regulation of AP activity | 
2 | O=C(O)Cc1cccc(OCCCN(Cc2cccc(C(F)(F)F)c2Cl)CC(c2ccccc2)c2ccccc2)c1 [GW3965, 2-(3-(3-(N-(2-chloro-3-(trifluoromethyl)benzyl)-N-(2,2-diphenylethyl)amino)propoxy)phenyl)acetic acid] | dose-response relation is observed; also recorded: AP activity is up-regulated; also recorded: Dose-dependent up-regulation of AP activity | 
3 | O=S(=O)(c1ccccc1)N(CC(F)(F)F)c1ccc(C(O)(C(F)(F)F)C(F)(F)F)cc1 [T0901317, N-(2,2,2-trifluoroethyl)-N-[4-[2,2,2-trifluoro-1-hydroxy-1-(trifluoromethyl)ethyl]phenyl]-benzenesulfonamide] | dose-dependently increase the up-regulation of the endogenous alkaline phosphatase activity; also recorded: AP activity is up-regulated; also recorded: score well | induce AP activity to similar extents in all 4 MPC isolates tested; also recorded: induce AP activity independent of the MPC isolate
